# Laboratory results taken from patent publication US20240287047A1, “PESTICIDALLY ACTIVE DIAZINE-AMIDE COMPOUNDS” (SYNGENTA CROP PROTECTION AG, priority 2021, published 2024).
# What was measured:
# Format in all cases: in vivo
# Diabrotica balteata = assay: Example B2: Diabrotica balteata (corn root worm), maize sprouts, L2 larvae; conditions: for percent control (mortality or growth inhibition) at 200 ppm: Diabrotica balteata, 96 h, application rate of 200 ppm, 4 days after infestation, read-out: control in at least one of the two categories (mortality or growth inhibition)
# Protocol: Maize sprouts placed onto an agar layer in 24-well microtiter plates were treated with aqueous test solutions prepared from 10,000 ppm DMSO stock solutions by spraying. After drying, the plates were infested with L2 larvae (6 to 10 per well). The samples were assessed for mortality and growth inhibition in comparison to untreated samples 4 days after infestation.
# Spodoptera littoralis [1] = assay: Example B5: Spodoptera littoralis (Egyptian cotton leaf worm), cotton leaf discs, L1 larvae; conditions: foliar, 72 h, application rate of 200 ppm, 3 days after infestation, read-out: control in at least one of the three categories (mortality, anti-feedant effect, or growth inhibition)
# Protocol: Cotton leaf discs were placed onto agar in 24-well microtiter plates and sprayed with aqueous test solutions prepared from 10,000 ppm DMSO stock solutions. After drying the leaf discs were infested with five L1 larvae. The samples were assessed for mortality, anti-feeding effect, and growth inhibition in comparison to untreated samples 3 days after infestation. Control of Spodoptera littoralis by a test sample is given when at least one of the categories mortality, anti-feedant effect, and growth inhibition is higher than the untreated sample.
# Plutella xylostella [2] = assay: Example B4: Plutella xylostella (diamond back moth), artificial diet, eggs; conditions: Plutella xylostella, 192 h; application rate of 200 ppm; 8 days after infestation; read-out: control in at least one of the two categories (mortality or growth inhibition)
# Protocol: 24-well microtiter plates with artificial diet were treated with aqueous test solutions prepared from 10′000 ppm DMSO stock solutions by pipetting. After drying, Plutella eggs were pipetted through a plastic stencil onto a gel blotting paper and the plate was closed with it. The samples were assessed for mortality and growth inhibition in comparison to untreated samples 8 days after infestation.
# Spodoptera littoralis [3] = assay: Example B6: Spodoptera littoralis, uptake by lettuce roots from agar; conditions: 144 h, test rate of 12.5 ppm, 6 days after infestation, read-out: effect in at least one of the three categories (mortality, anti-feeding, or growth inhibition)
# Text: Test compounds were applied by pipette from 10,000 ppm DMSO stock solutions into 24-well plates and mixed with agar. Lettuce seeds were placed onto the agar and the multi well plate was closed by another plate which contained also agar. After 7 days the compound was absorbed by the roots and the lettuce grew into the lid plate. The lettuce leaves were then cut off into the lid plate. Spodoptera eggs were pipetted through a plastic stencil onto a humid gel blotting paper and the lid plate was closed with it. The samples were assessed for mortality, anti-feedant effect and growth inhibition in comparison to untreated samples 6 days after infestation.
# Chilo suppressalis = assay: Example B1: Chilo suppressalis (striped rice stemborer), artificial diet, L2 larvae; conditions: 144 h, application rate of 200 ppm, 6 days after infestation, read-out: control in at least one of the three categories (mortality, anti-feedant effect, or growth inhibition)
# Protocol: 24-well microtiter plates with artificial diet were treated with aqueous test solutions prepared from 10,000 ppm DMSO stock solutions by pipetting. After drying, the plates were infested with L2 larvae (6-8 per well). The samples were assessed for mortality, anti-feeding effect, and growth inhibition in comparison to untreated samples 6 days after infestation. Control of Chilo suppressalis by a test sample is given when at least one of the categories mortality, anti-feedant effect, and growth inhibition is higher than the untreated sample.
# Plutella xylostella [4] = assay: Example B8: Plutella xylostella (diamondback moth), 96-well artificial diet; conditions: 216 h, application rate of 500 ppm, 9 days after infestation
# Protocol: 96-well microtiter plates containing artificial diet were treated with aqueous test solutions, prepared from 10,000 ppm DMSO stock solutions, by a liquid handling robot. After drying, eggs (˜30 per well) were infested onto a netted lid which was suspended above the diet. The eggs hatch and L1 larvae move down to the diet. The samples were assessed for mortality 9 days after infestation.
# Myzus persicae [5] = assay: Example B3: Myzus persicae (green peach aphid) intrinsic activity; conditions: 120 h, test rate of 12 ppm, 5 days after infestation
# Protocol: Test compounds prepared from 10′000 ppm DMSO stock solutions were applied by pipette into 24-well microtiter plates and mixed with sucrose solution. The plates were closed with a stretched Parafilm. A plastic stencil with 24 holes was placed onto the plate and infested pea seedlings were placed directly on the Parafilm. The infested plate was closed with a gel blotting paper and another plastic stencil and then turned upside down. The samples were assessed for mortality 5 days after infestation.
# Myzus persicae [6] = assay: Example B7: Myzus persicae (green peach aphid), 96-well sucrose solution; conditions: 120 h, application rate of 50 ppm, 5 days after infestation
# Protocol: Test compounds prepared from 10′000 ppm DMSO stock solutions were applied by a liquid handling robot into 96-well microtiter plates and mixed with a sucrose solution. Parafilm was stretched over the 96-well microtiter plate and a plastic stencil with 96 holes was placed onto the plate. Aphids were sieved into the wells directly onto the Parafilm. The infested plates were closed with a gel blotting card and a second plastic stencil and then turned upside down. The samples were assessed for mortality 5 days after infestation.
# Myzus persicae [7] = assay: Example B9: Myzus persicae (green peach aphid) feeding/contact activity, sunflower leaf discs; conditions: foliar, 144 h, application rate of 200 ppm, 6 days after infestation
# Protocol: Sunflower leaf discs were placed onto agar in a 24-well microtiter plate and sprayed with aqueous test solutions prepared from 10,000 ppm DMSO stock solutions. After drying, the leaf discs were infested with an aphid population of mixed ages. The samples were assessed for mortality 6 days after infestation.
SMILES,percent control (mortality or growth inhibition) at 200 ppm (Diabrotica balteata) [%],"percent control (mortality, anti-feedant effect or growth inhibition) at 200 ppm (Spodoptera littoralis [1]) [%]",percent control (mortality or growth inhibition) at 200 ppm (Plutella xylostella [2]) [%],"percent effect (mortality, anti-feeding or growth inhibition) at 12.5 ppm (Spodoptera littoralis [3]) [%]","percent control (mortality, anti-feedant effect or growth inhibition) at 200 ppm (Chilo suppressalis) [%]",mortality at 500 ppm (Plutella xylostella [4]) [%],mortality at 12 ppm (Myzus persicae [5]) [%],mortality at 50 ppm (Myzus persicae [6]) [%],mortality at 200 ppm (Myzus persicae [7]) [%],"mortality at 50 ppm (Diabrotica balteata; Concentration 50 ppm, Diabrotica balteata (Example B32)) [%]"
"C[C@H](NC(=O)c1cc(C(F)(F)F)cc(C(F)(F)F)c1)c1nccnc1-c1cnccn1 [Compound E3, N-[(1S)-1-(3-pyrazin-2-ylpyrazin-2-yl)ethyl]-3,5-bis(trifluoromethyl)benzamide]",≥ 80,≥ 80,≥ 80,≥ 80,≥ 80,≥ 80,≥ 80,≥ 80,,
"CC(NC(=O)c1cc(Br)cc(C(F)(F)F)c1)c1nccnc1-c1cnccn1 (stereo not drawn) [Compound P7, 3-bromo-N-[1-(3-pyrazin-2-ylpyrazin-2-yl)ethyl]-5-(trifluoromethyl)benzamide]",≥ 80,≥ 80,≥ 80,,≥ 80,,,,≥ 80,
"CC(NC(=O)c1cc(Cl)cc(Br)c1)c1nccnc1-c1cnccn1 (stereo not drawn) [Compound P12, 3-bromo-5-chloro-N-[1-(3-pyrazin-2-ylpyrazin-2-yl)ethyl]benzamide]",≥ 80,≥ 80,≥ 80,,,,,,≥ 80,
"CC(NC(=O)c1cc(Cl)nc(C(F)(F)F)c1)c1nccnc1-c1cnccn1 (stereo not drawn) [Compound P14, 2-chloro-N-[1-(3-pyrazin-2-ylpyrazin-2-yl)ethyl]-6-(trifluoromethyl)pyridine-4-carboxamide]",≥ 80,≥ 80,≥ 80,,≥ 80,,,,≥ 80,
"CC(NC(=O)c1cc(I)cc(I)c1)c1nccnc1-c1cnccn1 (stereo not drawn) [Compound P17, 3,5-diiodo-N-[1-(3-pyrazin-2-ylpyrazin-2-yl)ethyl]benzamide]",≥ 80,≥ 80,≥ 80,,,,,,≥ 80,
"Cc1cc(C(=O)NC(C)c2nccnc2-c2cnccn2)cc(C(F)(F)F)c1 (stereo not drawn) [Compound P18, 3-methyl-N-[1-(3-pyrazin-2-ylpyrazin-2-yl)ethyl]-5-(trifluoromethyl)benzamide]",,,≥ 80,,≥ 80,,,,≥ 80,
CC(NC(=O)c1cc(C(F)(F)F)cc(C2(C#N)CC2)c1)c1nccnc1-c1cnccn1 (stereo not drawn) [Compound P21],≥ 80,≥ 80,≥ 80,,≥ 80,,≥ 80,,≥ 80,100
"CC(NC(=O)c1cc(F)cc(C(F)(F)F)c1)c1nccnc1-c1cnccn1 (stereo not drawn) [Compound P25, 3-fluoro-N-[1-(3-pyrazin-2-ylpyrazin-2-yl)ethyl]-5-(trifluoromethyl)benzamide]",,,≥ 80,,,,,,≥ 80,
"CC(NC(=O)c1cc(Cl)cc(S(C)(=O)=O)c1)c1nccnc1-c1cnccn1 (stereo not drawn) [Compound P26, 3-chloro-5-methylsulfonyl-N-[1-(3-pyrazin-2-ylpyrazin-2-yl)ethyl]benzamide]",≥ 80,≥ 80,≥ 80,,≥ 80,,≥ 80,,,
CC(NC(=O)c1cc(OC(F)(F)F)cc(C2(C#N)CC2)c1)c1nccnc1-c1cnccn1 (stereo not drawn) [Compound P31],≥ 80,≥ 80,≥ 80,,≥ 80,,≥ 80,,,
